Test results from PubChem BioAssay AID1259411 (Chemical Carcinogenesis Research Information System (CCRIS), 2018).
Activity calls are given as the source filed them. How the calls were made is not given here.

System: rodent carcinogenicity bioassays, tumor incidence
Experiment: CCRIS carcinogenicity studies
Source text: The CCRIS database contains chemical records with carcinogenicity, mutagenicity, tumor promotion, and tumor inhibition test results. It was developed by the National Cancer Institute (NCI). Data are derived from studies cited in primary journals, current awareness tools, NCI reports, and other sources. Test results have been reviewed by experts in carcinogenesis and mutagenesis.
CCRIS provides historical information from the years 1985 - 2011. It is no longer updated.
This is an archive assay for CCRIS carcinogenicity studies.

## O=C1OC(c2ccc(O)cc2)(c2ccc(O)cc2)c2ccccc21
Species: MOUSE, Strain/Sex: B6C3F1/FEMALE, Route: ORAL, Dose: 0, 3000, 6000, 12000 PPM IN DIET FOR 2 YR (STUDY DURATION: 2 YR), Dose: 0, 3000, 6000, 12000 PPM IN DIET FOR 2 YR (STUDY DURATION: 2 YR), Tumor Site: Type of Lesion: OVARY: BENIGN SEX-CORD STROMAL TUMOR, LIVER: HISTIOCYTIC SARCOMA, LYMPHATIC SYSTEM: MALIGNANT LYMPHOMA, MALIGNANT LYMPHO, Tumor Site: Type of Lesion: OVARY: BENIGN SEX-CORD STROMAL TUMOR, LIVER: HISTIOCYTIC SARCOMA, LYMPHATIC SYSTEM: MALIGNANT LYMPHOMA, MALIGNANT LYMPHO
  carcinogen call: active; positive
Species: MOUSE, Strain/Sex: B6C3F1/MALE, Route: ORAL, Dose: 0, 3000, 6000, 12000 PPM IN DIET FOR 2 YR (STUDY DURATION: 2 YR), Dose: 0, 3000, 6000, 12000 PPM IN DIET FOR 2 YR (STUDY DURATION: 2 YR), Tumor Site: Type of Lesion: LIVER: HISTIOCYTIC SARCOMA, LYMPHATIC SYSTEM: MALIGNANT LYMPHOMA (THYMIC ORIGIN)
  carcinogen call: active; positive
Species: RAT, Strain/Sex: F344/FEMALE, Route: ORAL, Dose: 0, 12000, 25000, 50000 PPM IN DIET FOR 2 YR (STUDY DURATION: 2 YR), Dose: 0, 12000, 25000, 50000 PPM IN DIET FOR 2 YR (STUDY DURATION: 2 YR), Tumor Site: Type of Lesion: ADRENAL MEDULLA: BENIGN PHEOCHROMOCYTOMA, BENIGN OR MALIGNANT PHEOCHROMOCYTOMA
  carcinogen call: active; positive
Species: RAT, Strain/Sex: F344/MALE, Route: ORAL, Dose: 0, 12000, 25000, 50000 PPM IN DIET FOR 2 YR (STUDY DURATION: 2 YR), Dose: 0, 12000, 25000, 50000 PPM IN DIET FOR 2 YR (STUDY DURATION: 2 YR), Tumor Site: Type of Lesion: ADRENAL MEDULLA: BENIGN PHEOCHROMOCYTOMA, KIDNEY(RENAL TUBULE): ADENOMA, ADENOMA OR CARCINOMA
  carcinogen call: active; positive

## O=C(Nc1ccccc1)Nc1ccnc(Cl)c1
Species: Mouse, Strain/Sex: CD-1/Female (60/Group), Route: Oral, Dose: 0, 10, 1000 mg/kg/day of 96.9% forchlorfenuron in diet for 18 mo, study duration 18 mo, Dose: 0, 10, 1000 mg/kg/day of 96.9% forchlorfenuron in diet for 18 mo, study duration 18 mo
  carcinogen call: inactive; negative
Species: Mouse, Strain/Sex: CD-1/Male (60/Group), Route: Oral, Dose: 0, 10, 1000 mg/kg/day of 96.9% forchlorfenuron in diet for 18 mo, study duration 18 mo, Dose: 0, 10, 1000 mg/kg/day of 96.9% forchlorfenuron in diet for 18 mo, study duration 18 mo
  carcinogen call: inactive; negative
Species: Rat, Strain/Sex: Strain not specified by Department of Pesticides Regulation/Female (70/Group), Route: Oral, Dose: 0, 9, 122, 518 mg/kg/day of 98.5% forchlorfenuron in diet for up to 2 yr, study duration 2 yr, Dose: 0, 9, 122, 518 mg/kg/day of 98.5% forchlorfenuron in diet for up to 2 yr, study duration 2 yr
  carcinogen call: inactive; negative
Species: Rat, Strain/Sex: Strain not specified by Department of Pesticides Regulation/Male (70/Group), Route: Oral, Dose: 0, 7, 93, 352 mg/kg/day of 98.5% forchlorfenuron in diet for up to 2 yr, study duration 2 yr, Dose: 0, 7, 93, 352 mg/kg/day of 98.5% forchlorfenuron in diet for up to 2 yr, study duration 2 yr
  carcinogen call: inactive; negative

## CCC(C)[N+](=O)[O-] (stereo unspecified)
Species: RAT, Strain/Sex: F344/MALE, Route: GAVAGE, Dose: 0, 2 MMOL/KG BW 1/WK FOR 50 WK (STUDY DURATION: 83 WK), Tumor Site: Type of Lesion: LIVER: CARCINOMA
  carcinogen call: active; positive

## C=C(C#N)C(=O)O
Species: RAT, Strain/Sex: F344/FEMALE, Route: SUBCUTANEOUS IMPLANT, Dose: 0.12 G INJECTED INTO 2 SITES ON THE LATERAL ABDOMEN, 2 SITES ON THE LATERAL CHEST REGION AND 1 SITE ON THE BACK (STUDY D, Tumor Site: Type of Lesion: IMPLANT SITE: MALIGNANT HISTIOCYTOMA
  carcinogen call: active; positive

## Cc1cc(-c2ccccc2C)ccc1N
Species: HAMSTER, Strain/Sex: SYRIAN/FEMALE, Route: SUBCUTANEOUS, Dose: 0, 100 MG/KG BW 1/WK FOR 20 WK (STUDY DURATION: 50 WK), Tumor Site: Type of Lesion: URINARY BLADDER: CARCINOMA
  carcinogen call: active; positive
Species: HAMSTER, Strain/Sex: SYRIAN/FEMALE, Route: SUBCUTANEOUS, Dose: 0.15 MMOL/KG IN PEANUT OIL 1/WK FOR 37 WK (TOTAL DOSE: 5.6 MMOL/KG), Tumor Site: Type of Lesion: URINARY BLADDER: TRANSITIONAL CELL CARCINOMA, SQUAMOUS CELL CARCINOMA
  carcinogen call: active; positive
Species: HAMSTER, Strain/Sex: SYRIAN/MALE,FEMALE, Route: SUBCUTANEOUS, Dose: 100 MG/KG 1/WK FOR 52 WK, Tumor Site: Type of Lesion: URINARY BLADDER: PAPILLOMA, CARCINOMA
  carcinogen call: active; positive
Species: HAMSTER, Strain/Sex: SYRIAN/MALE, Route: SUBCUTANEOUS, Dose: 0, 100 MG/KG BW 1/WK FOR 20 WK (STUDY DURATION: 50 WK), Tumor Site: Type of Lesion: URINARY BLADDER: CARCINOMA
  carcinogen call: active; positive
Species: HAMSTER, Strain/Sex: SYRIAN/MALE, Route: SUBCUTANEOUS, Dose: 0, 100 MG/KG IN PEANUT OIL 1/WK FOR 8 WK, THEN ONCE EVERY 2 WK FOR 18 MO (TOTAL MAXIMUM DOSE: 555 MG), Tumor Site: Type of Lesion: URINARY BLADDER: TRANSITIONAL CELL CARCINOMA, FORESTOMACH: SQUAMOUS CELL PAPILLOMA, INTESTINES (SMALL): ADENOCARCINOMA;, Tumor Site: Type of Lesion: URINARY BLADDER: TRANSITIONAL CELL CARCINOMA, FORESTOMACH: SQUAMOUS CELL PAPILLOMA, INTESTINES (SMALL): ADENOCARCINOMA
  carcinogen call: active; positive
Species: HAMSTER, Strain/Sex: SYRIAN/MALE, Route: SUBCUTANEOUS, Dose: 0.15 MMOL/KG IN PEANUT OIL 1/WK FOR 37 WK (TOTAL DOSE: 5.6 MMOL/KG), Tumor Site: Type of Lesion: URINARY BLADDER: TRANSITIONAL CELL CARCINOMA
  carcinogen call: active; positive
Species: RAT, Strain/Sex: ALBINO/MALE, Route: SUBCUTANEOUS, Dose: 2.8-3.5 G/KG, Tumor Site: Type of Lesion: INTESTINES, SALIVARY GLAND, EAR (DUCT), Tumor Site: Type of Lesion: INTESTINES, SALIVARY GLAND, EAR (DUCT)
  carcinogen call: active; positive
Species: RAT, Strain/Sex: F344/MALE, Route: SUBCUTANEOUS, Dose: 0, 150 MG/KG 1/WK FOR 3 WK FOLLOWED BY HIGH FAT DIET (20% CORN OIL) BEGINNING 12 WK POST LAST CARCINOGEN DOSE AND CONTIN, Tumor Site: Type of Lesion: PANCREAS: ADENOMA OR CARCINOMA
  carcinogen call: active; positive
Species: RAT, Strain/Sex: F344/MALE, Route: SUBCUTANEOUS, Dose: 0, 150 MG/KG 1/WK FOR 3 WK FOLLOWED BY NORMAL FAT DIET (4.5% CORN OIL) BEGINNING 12 WK POST LAST CARCINOGEN DOSE AND CON, Tumor Site: Type of Lesion: PANCREAS: ADENOMA OR CARCINOMA
  carcinogen call: active; positive
Species: RAT, Strain/Sex: F344/MALE, Route: SUBCUTANEOUS, Dose: 20 MG/KG 1/WK FOR 42 WK OR 50 MG/KG 1/WK FOR 20 WK, Tumor Site: Type of Lesion: PROSTATE GLAND: CARCINOMA (IN SITU)
  carcinogen call: active; positive
Species: RAT, Strain/Sex: WISTAR/FEMALE, Route: SUBCUTANEOUS, Dose: 2 MG/100 G 5/WK FOR 12 WK, Tumor Site: Type of Lesion: MAMMARY GLAND: CARCINOMA
  carcinogen call: active; positive
Species: RAT, Strain/Sex: WISTAR/MALE,FEMALE, Route: SUBCUTANEOUS, Dose: 2 MG/100 G 5/WK FOR LIFE, Tumor Site: Type of Lesion: INTESTINES (LARGE): POLYPLOID TUMOR (MULTIPLE)
  carcinogen call: active; positive

## Nc1ccc2cc3ccc(N)cc3nc2c1
Species: MOUSE, Strain/Sex: B6C3F1/FEMALE, Route: ORAL, Dose: 0, 200, 400 PPM IN DIET FOR 104 WK (STUDY DURATION: 104 WK), Dose: 0, 200, 400 PPM IN DIET FOR 104 WK (STUDY DURATION: 104 WK), Tumor Site: Type of Lesion: LIVER: HEPATOCELLULAR CARCINOMA
  carcinogen call: equivocal
Species: MOUSE, Strain/Sex: B6C3F1/MALE, Route: ORAL, Dose: 0, 200, 400 PPM IN DIET FOR 104 WK (STUDY DURATION: 104 WK), Dose: 0, 200, 400 PPM IN DIET FOR 104 WK (STUDY DURATION: 104 WK), Tumor Site: Type of Lesion: LIVER: HEPATOCELLULAR CARCINOMA
  carcinogen call: equivocal
Species: RAT, Strain/Sex: F344/FEMALE, Route: ORAL, Dose: 0, 300, 600 PPM IN DIET, Dose: 0, 300, 600 PPM IN DIET
  carcinogen call: inactive; negative
Species: RAT, Strain/Sex: F344/MALE, Route: ORAL, Dose: 0, 300, 600 PPM IN DIET FOR 109 WK (STUDY DURATION: 109 WK), Dose: 0, 300, 600 PPM IN DIET FOR 109 WK (STUDY DURATION: 109 WK), Tumor Site: Type of Lesion: INTESTINE: LEIOMYOSARCOMA OR ADENOCARCINOMA OR SARCOMA
  carcinogen call: equivocal
